Assays:
[1] = test system: Human diffuse large B-cell lymphoma cell line: TMD8; experiment: Tumor cell proliferation inhibition (CellTiter-Meiluncell luminescent cell viability assay); conditions: TMD8, 96 h, read-out: Inhibitory activity (IC50, nM) on tumor cell proliferation, TMD8
Method: (§1) The tumor cells used herein were cultured in a cell culture medium listed in table 2 at 37°C in an incubator with 5% CO2. Prior to experimentation, all cell lines used were correctly identified by STR profiling, and tested negative for mycoplasma contamination using a mycoplasma detection kit through routine screenings.
(§2) The IC50 values of the compounds of the present disclosure (including the compounds in Table 1 and Examples) were determined using the CellTiter-Meiluncell Luminescent Cell Viability Assay Kit from Dalian Meilun Biotech Co., Ltd. The detailed procedure is as follows: Tumor cells were seeded in 96-well cell culture plates at the densities specified in Table 3. On the following day, the test compounds of the present disclosure were subjected to serial dilution. The dilution can be performed according to one of the following two methods: • (1) The first dilution method: The test compounds of the present disclosure (including the compounds in Table 1 and Examples) were subjected to 5-fold serial dilutions starting from a highest concentration of 2000 µM, resulting in a total of 9 concentrations from high to low (2000, 400, 80, 16, 3.2, 0.64, 0.128, 0.0256, 0.00512 µM). Subsequently, 0.5 µL of the test compound dilution was transferred into the 96-well plate containing the cells, with each well containing 100 µL of cell culture medium. […] Into the 96-well plate, the diluted test compounds and corresponding detection reagents were added, resulting in final test compound concentrations of 500 nM and 10 nM, respectively. The experimental procedure is described below using the diluted 2 µM test compound as an example.
0.5 µL of the aforementioned diluted compound of the present disclosure (including the compounds in Table 1 and Examples) was added to the seeded cells in 100 µL of medium, yielding a final test compound concentration of 10 nM. […] The growth inhibition curves for the compounds of the present disclosure were plotted using Prism GraphPad software, and the IC50 values were calculated therefrom.

[2] = test system: Human multiple myeloma peripheral blood B lymphocyte cell (RPMI-8226); experiment: as above; conditions: RPMI-8226, 96 h; for IC50: read-out: Inhibitory activity (IC50, nM) on tumor cell proliferation, RPMI-8226
GSPT1 = experiment: Western blot, degradation of substrate protein in hPBMCs; type: cell-based, Human; conditions: Western blot, 24 hours of compound treatment, compounds tested at 50 nM and 500 nM (concentration for the table not stated)
[3] = test system: Human multiple myeloma cell (MM.1S); experiment: Tumor cell proliferation inhibition (CellTiter-Meiluncell luminescent cell viability assay); conditions: Homo sapiens, MM1.S, 96 h, read-out: Inhibitory activity (IC50, nM) on tumor cell proliferation, MM.1S
[4] = target: T1, human Cereblon WT GST-tagged protein (Homo sapiens, UniProt Q96SW2); experiment: CRBN-binding affinity, HTRF (CEREBLON BINDING kit); conditions: CRBN binding, HTRF, 3 hours at room temperature; read-out: HTRF IC50
T1 construct: purchased CISBIO 64BDCRBNPEH

CK1α = target: T2, CK1α (Homo sapiens, UniProt P48729+Q96SW2); experiment: Western blot, degradation of substrate protein in hPBMCs; type: cell-based; conditions: Western blot, 24 hours of compound treatment, compounds tested at 50 nM and 500 nM (concentration for the table not stated)
T2 construct: effects of the compounds of the present disclosure on the expression of target proteins in cells; endogenous in cells; host or cells: human PBMCs (Milecell Biotechnologies)

IKZF3 = target: T3, IKZF3 (Homo sapiens, UniProt Q96SW2+Q9UKT9); experiment: as above; type: cell-based; conditions: Western blot, 24 hours of compound treatment, compounds tested at 50 nM and 500 nM (concentration for the table not stated)
T3 construct: effects of the compounds of the present disclosure on the expression of target proteins in cells; endogenous in cells; host or cells: human PBMCs (Milecell Biotechnologies)

WEE1 = target: T4, WEE1 (Homo sapiens, UniProt P30291+Q96SW2); experiment: as above; type: cell-based; conditions: Western blot, 24 hours of compound treatment, compounds tested at 50 nM and 500 nM (concentration for the table not stated)
T4 construct: effects of the compounds of the present disclosure on the expression of target proteins in cells; endogenous in cells; host or cells: human PBMCs (Milecell Biotechnologies)

IKZF2 = target: T5, IKZF2 (Homo sapiens, UniProt Q96SW2+Q9UKS7); experiment: as above; type: cell-based; conditions: Western blot, 24 hours of compound treatment, compounds tested at 50 nM and 500 nM (concentration for the table not stated)
T5 construct: effects of the compounds of the present disclosure on the expression of target proteins in cells; endogenous in cells; host or cells: human PBMCs (Milecell Biotechnologies)

IKZF1 = target: T6, IKZF1 (Homo sapiens, UniProt Q13422+Q96SW2); experiment: as above; type: cell-based; conditions: Western blot, 24 hours of compound treatment, compounds tested at 50 nM and 500 nM (concentration for the table not stated)
T6 construct: effects of the compounds of the present disclosure on the expression of target proteins in cells; endogenous in cells; host or cells: human PBMCs (Milecell Biotechnologies)

[5] = test system: Human malignant melanoma cell line: A375; experiment: Tumor cell proliferation inhibition (CellTiter-Meiluncell luminescent cell viability assay); conditions: A-375, 96 h
Method: as §1, §2
(§3) 0.5 µL of the aforementioned diluted compound of the present disclosure (including the compounds in Table 1 and Examples) was added to the seeded cells in 100 µL of medium, yielding a final test compound concentration of 10 nM. After the cells were treated with the compounds of the present disclosure for a specified period, the cell viability assay reagent was added to the culture medium according to the kit's instructions to determine cell viability. […] All controls were treated using the same procedure as the compounds of the present disclosure. The growth inhibition curves for the compounds of the present disclosure were plotted using Prism GraphPad software, and the IC50 values were calculated therefrom.

[6] = test system: Human colon cancer cell line: SW620; experiment: as above; conditions: SW-620, 96 h
Method: as §1, §2, §3

[7] = test system: Human monocytic leukemia cell line: THP-1; experiment: as above; conditions: THP-1, 96 h
Method: as §1, §2, §3

[8] = test system: Human breast cancer cell (MCF-7); experiment: as above; conditions: MCF7, 96 h; for IC50: read-out: Inhibitory activity (IC50, nM) on tumor cell proliferation, MCF7
Method: as §1, §2, §3

[9] = test system: Human myeloid monocytic leukemia cell (MV-4-11); experiment: as above; conditions: MV4-11, 96 h
Method: as §1, §2, §3

[10] = test system: Human acute myeloid leukemia cell line: Kasumi-1; experiment: as above; conditions: Kasumi 1, 96 h
[11] = test system: Human T lymphocytic leukemia cell line: Jurkat; experiment: as above; conditions: 96 h; for IC50: read-out: Inhibitory activity (IC50, nM) on tumor cell proliferation, Jurkat
[12] = test system: Human non-small cell lung cancer cell line: NCI-H1975; experiment: as above; conditions: NCI-H1975, 96 h, read-out: Inhibitory activity (IC50, nM) on tumor cell proliferation, H1975
Method: as §1, §2, §3

[13] = test system: Human T cell acute lymphoblastic leukemia cell (CCRF-CEM); experiment: as above; conditions: 96 h
Method: as §1, §2, §3

[14] = test system: Human mantle cell lymphoma cell line: JEKO-1; experiment: as above; conditions: JeKo-1, 96 h, read-out: Inhibitory activity (IC50, nM) on tumor cell proliferation, JEKO-1
Method: as §1, §2, §3

[15] = test system: Human gastric cancer cell line: MGC803; experiment: as above; conditions: MGC-803, read-out: Inhibitory activity (IC50, nM) on tumor cell proliferation, MGC803
Method: as §2, §3

[16] = read-out: Inhibition Rate at 10 nM (%)
[17] = read-out: Inhibition Rate at 500 nM (%)

T2 sequence (P48729 whole entry): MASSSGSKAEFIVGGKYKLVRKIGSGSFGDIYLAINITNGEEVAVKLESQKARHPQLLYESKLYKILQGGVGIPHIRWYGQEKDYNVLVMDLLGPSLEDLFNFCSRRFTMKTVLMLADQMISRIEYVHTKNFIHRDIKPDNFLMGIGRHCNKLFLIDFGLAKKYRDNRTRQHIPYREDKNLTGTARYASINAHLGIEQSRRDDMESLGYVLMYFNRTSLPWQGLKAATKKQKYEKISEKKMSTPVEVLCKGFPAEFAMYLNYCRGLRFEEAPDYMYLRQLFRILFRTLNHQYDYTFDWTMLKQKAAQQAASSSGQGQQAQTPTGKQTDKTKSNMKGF
T2 sequence (Q96SW2 whole entry): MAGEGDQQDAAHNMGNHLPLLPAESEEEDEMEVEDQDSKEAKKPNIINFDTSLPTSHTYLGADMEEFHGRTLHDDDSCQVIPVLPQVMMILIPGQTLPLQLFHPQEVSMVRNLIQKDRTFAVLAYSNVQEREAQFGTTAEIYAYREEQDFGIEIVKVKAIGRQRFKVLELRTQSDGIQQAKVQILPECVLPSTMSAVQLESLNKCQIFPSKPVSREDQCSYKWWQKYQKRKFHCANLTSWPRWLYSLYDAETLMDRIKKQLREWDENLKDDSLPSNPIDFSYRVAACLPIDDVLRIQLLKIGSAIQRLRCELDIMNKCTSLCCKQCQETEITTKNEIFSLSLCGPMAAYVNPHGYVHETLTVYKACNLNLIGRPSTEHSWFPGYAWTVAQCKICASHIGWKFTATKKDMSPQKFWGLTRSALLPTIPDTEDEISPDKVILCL
T2 sequence (Q16531 whole entry partner): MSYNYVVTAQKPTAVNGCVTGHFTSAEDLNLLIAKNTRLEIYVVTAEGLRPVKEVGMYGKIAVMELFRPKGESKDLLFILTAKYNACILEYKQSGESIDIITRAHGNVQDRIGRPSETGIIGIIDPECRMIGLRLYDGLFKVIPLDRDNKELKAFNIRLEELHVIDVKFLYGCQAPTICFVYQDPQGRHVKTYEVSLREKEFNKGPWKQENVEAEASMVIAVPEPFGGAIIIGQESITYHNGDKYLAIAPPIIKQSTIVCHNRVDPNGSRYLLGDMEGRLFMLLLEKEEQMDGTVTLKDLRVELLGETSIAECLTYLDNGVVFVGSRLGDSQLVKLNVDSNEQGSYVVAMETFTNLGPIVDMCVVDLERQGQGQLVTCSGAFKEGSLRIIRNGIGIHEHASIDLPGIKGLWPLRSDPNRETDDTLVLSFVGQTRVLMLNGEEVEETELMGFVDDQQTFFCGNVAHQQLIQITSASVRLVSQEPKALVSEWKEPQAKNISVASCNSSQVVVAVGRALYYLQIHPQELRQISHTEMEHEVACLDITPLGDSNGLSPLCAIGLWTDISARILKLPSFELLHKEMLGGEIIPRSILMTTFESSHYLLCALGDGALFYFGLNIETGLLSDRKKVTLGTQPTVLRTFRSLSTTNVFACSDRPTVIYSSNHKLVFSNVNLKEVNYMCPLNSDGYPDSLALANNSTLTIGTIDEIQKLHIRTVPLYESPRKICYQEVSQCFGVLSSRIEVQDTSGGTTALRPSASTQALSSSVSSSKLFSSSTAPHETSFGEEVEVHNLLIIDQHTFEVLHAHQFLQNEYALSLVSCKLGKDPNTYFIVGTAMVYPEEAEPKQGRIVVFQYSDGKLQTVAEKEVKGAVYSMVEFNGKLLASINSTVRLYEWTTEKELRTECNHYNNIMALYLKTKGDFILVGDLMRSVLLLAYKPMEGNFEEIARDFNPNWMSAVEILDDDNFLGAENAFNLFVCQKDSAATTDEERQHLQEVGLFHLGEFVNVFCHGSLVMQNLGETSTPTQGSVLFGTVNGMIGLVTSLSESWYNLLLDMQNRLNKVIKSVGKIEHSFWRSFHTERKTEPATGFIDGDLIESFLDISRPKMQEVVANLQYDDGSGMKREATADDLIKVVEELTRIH
T4 sequence (P30291 whole entry): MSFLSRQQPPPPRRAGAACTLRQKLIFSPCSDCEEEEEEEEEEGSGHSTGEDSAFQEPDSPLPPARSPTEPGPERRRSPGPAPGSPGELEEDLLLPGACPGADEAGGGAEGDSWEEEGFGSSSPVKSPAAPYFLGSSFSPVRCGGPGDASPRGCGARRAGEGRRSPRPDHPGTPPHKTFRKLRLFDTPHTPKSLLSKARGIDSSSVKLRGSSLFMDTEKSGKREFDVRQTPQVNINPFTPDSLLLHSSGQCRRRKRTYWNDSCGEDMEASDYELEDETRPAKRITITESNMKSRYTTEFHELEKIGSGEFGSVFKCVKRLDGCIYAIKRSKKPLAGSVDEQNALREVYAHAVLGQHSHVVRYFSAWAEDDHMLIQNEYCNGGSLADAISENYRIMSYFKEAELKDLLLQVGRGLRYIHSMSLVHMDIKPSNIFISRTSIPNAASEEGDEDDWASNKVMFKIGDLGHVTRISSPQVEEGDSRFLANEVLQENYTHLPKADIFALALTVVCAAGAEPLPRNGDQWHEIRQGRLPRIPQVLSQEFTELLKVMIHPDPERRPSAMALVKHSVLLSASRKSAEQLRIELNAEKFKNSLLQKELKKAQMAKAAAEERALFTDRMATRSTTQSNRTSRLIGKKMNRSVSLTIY
T4 sequence (Q96SW2 whole entry): as the sequence (Q96SW2 whole entry) above
T4 sequence (Q16531 whole entry partner): as the sequence (Q16531 whole entry partner) above
T1 sequence (Q96SW2 whole entry): as the sequence (Q96SW2 whole entry) above
T3 sequence (Q9UKT9 whole entry): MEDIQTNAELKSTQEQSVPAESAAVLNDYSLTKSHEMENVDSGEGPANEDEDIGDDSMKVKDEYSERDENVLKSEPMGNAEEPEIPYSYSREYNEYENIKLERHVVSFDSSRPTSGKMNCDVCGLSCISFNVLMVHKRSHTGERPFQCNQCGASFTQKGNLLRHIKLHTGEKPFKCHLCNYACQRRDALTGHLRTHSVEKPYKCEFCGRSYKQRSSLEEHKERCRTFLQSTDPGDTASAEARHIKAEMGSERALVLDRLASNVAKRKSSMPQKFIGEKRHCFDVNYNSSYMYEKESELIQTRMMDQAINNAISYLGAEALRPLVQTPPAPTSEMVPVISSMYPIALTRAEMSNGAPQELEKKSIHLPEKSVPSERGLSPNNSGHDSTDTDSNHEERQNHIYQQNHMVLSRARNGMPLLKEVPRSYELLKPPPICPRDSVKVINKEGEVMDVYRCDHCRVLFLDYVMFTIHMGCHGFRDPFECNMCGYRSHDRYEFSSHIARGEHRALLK
T3 sequence (Q96SW2 whole entry): as the sequence (Q96SW2 whole entry) above
T3 sequence (Q16531 whole entry partner): as the sequence (Q16531 whole entry partner) above
T5 sequence (Q9UKS7 whole entry): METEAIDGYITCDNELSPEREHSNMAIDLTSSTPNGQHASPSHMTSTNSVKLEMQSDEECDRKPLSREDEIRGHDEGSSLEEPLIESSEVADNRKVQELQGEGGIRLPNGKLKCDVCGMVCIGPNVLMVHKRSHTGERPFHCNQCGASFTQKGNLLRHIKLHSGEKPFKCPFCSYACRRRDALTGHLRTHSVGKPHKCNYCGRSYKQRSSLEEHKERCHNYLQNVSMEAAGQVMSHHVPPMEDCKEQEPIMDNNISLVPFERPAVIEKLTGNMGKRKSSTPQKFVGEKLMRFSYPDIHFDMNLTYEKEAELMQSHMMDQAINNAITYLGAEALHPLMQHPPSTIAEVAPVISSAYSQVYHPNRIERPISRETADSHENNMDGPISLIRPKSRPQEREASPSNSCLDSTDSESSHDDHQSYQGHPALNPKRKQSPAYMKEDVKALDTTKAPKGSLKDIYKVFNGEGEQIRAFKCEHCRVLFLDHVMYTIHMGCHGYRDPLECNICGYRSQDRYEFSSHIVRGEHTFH
T5 sequence (Q96SW2 whole entry): as the sequence (Q96SW2 whole entry) above
T5 sequence (Q16531 whole entry partner): as the sequence (Q16531 whole entry partner) above
T6 sequence (Q13422 whole entry): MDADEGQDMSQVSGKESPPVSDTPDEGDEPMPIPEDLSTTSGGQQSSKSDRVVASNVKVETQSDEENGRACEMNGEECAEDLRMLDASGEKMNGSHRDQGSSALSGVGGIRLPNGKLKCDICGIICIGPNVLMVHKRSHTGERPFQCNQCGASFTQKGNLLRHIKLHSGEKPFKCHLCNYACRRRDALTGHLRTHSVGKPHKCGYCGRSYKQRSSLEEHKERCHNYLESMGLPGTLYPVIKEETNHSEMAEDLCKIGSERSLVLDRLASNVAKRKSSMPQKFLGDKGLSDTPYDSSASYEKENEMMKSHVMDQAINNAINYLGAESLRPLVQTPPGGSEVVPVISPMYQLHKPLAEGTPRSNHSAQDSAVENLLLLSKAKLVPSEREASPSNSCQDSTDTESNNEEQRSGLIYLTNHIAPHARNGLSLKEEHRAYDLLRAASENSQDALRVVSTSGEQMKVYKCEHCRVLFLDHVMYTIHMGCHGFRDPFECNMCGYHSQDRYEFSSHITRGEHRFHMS
T6 sequence (Q96SW2 whole entry): as the sequence (Q96SW2 whole entry) above
T6 sequence (Q16531 whole entry partner): as the sequence (Q16531 whole entry partner) above

| SMILES | IC50 [1] | IC50 [2] | GSPT1 substrate protein remaining % (GSPT1) | IC50 [3] | IC50 [4] | CK1α substrate protein remaining % (CK1α) | IKZF3 substrate protein remaining % (IKZF3) | Wee1 substrate protein remaining % (WEE1) | IKZF2 substrate protein remaining % (IKZF2) | IKZF 1 substrate protein remaining % (IKZF1) | IC50 [8] | IC50 [11] | IC50 [12] | IC50 [14] | IC50 [15] | other results |
| --- | --- | --- | --- | --- | --- | --- | --- | --- | --- | --- | --- | --- | --- | --- | --- | --- |
| O=C1CCC(N2Cc3cc(CN4CCC(c5c[nH]c6cc(F)ccc56)CC4)ccc3C2=S)C(=O)N1 (stereo not drawn) [GT-05243, 3-(5-((4-(6-fluoro-1H-indol-3-yl)piperidin-1-yl)methyl)-1-thioxoisoindolin-2-yl)piperidine-2,6-dione] | 100 to 500 nM | 10 to 50 nM | A (0% ≤ substrate protein remaining % ≤ 80%) | < 5 nM | < 100 nM | B (80%< substrate protein remaining %≤ 100%) | A (0% ≤ substrate protein remaining % ≤ 80%) | A (0% ≤ substrate protein remaining % ≤ 80%) | A (0% ≤ substrate protein remaining % ≤ 80%) | B (80%< substrate protein remaining %≤ 100%) | – | – | – | – | – | – |
| Nc1cccc2c1C(=O)N(C1CCC(=O)NC1=O)C2=O (stereo not drawn) [pomalidomide, reference compound] | > 10000 nM | 1000 to 5000 nM | – | 500 to 1000 nM | – | – | – | – | – | – | > 10000 nM | > 10000 nM | > 10000 nM | 5000 to 10000 nM | > 10000 nM | inhibition at 0.01 µM [5, 16]: 10 to 20%; inhibition at 0.5 µM [5, 17]: 5 to 10%; inhibition at 0.01 µM [6, 16]: 20 to 30%; inhibition at 0.5 µM [6, 17]: 20 to 30%; inhibition at 0.01 µM [7, 16]: 10 to 20%; inhibition at 0.5 µM [7, 17]: 10 to 20%; inhibition at 0.01 µM [8, 16]: 5 to 10%; inhibition at 0.5 µM [8, 17]: 0 to 5%; inhibition at 0.01 µM [9, 16]: 18 to 25%; inhibition at 0.5 µM [9, 17]: 10 to 18%; inhibition at 0.01 µM [10, 16]: -10 to -5%; inhibition at 0.5 µM [10, 17]: -5 to 0%; inhibition at 0.01 µM [2, 16]: 10 to 20%; inhibition at 0.5 µM [2, 17]: 30 to 40%; inhibition at 0.01 µM [11, 16]: 10 to 20%; inhibition at 0.5 µM [11, 17]: 10 to 20%; inhibition at 0.01 µM [13, 16]: 0 to 5%; inhibition at 0.5 µM [13, 17]: 0 to 5% |
| Cn1cc(C2=CCN(Cc3ccc4c(c3)CN(C3CCC(=O)NC3=O)C4=S)CC2)c2ccc(F)cc21 (stereo not drawn) [GT-05247, 3-(5-((4-(6-fluoro-1-methyl-1H-indol-3-yl)-3,6-dihydropyridin-1(2H)-yl)methyl)-1-thioxoisoindolin-2-yl)piperidine-2,6-dione] | 100 to 500 nM | 10 to 50 nM | A (0% ≤ substrate protein remaining % ≤ 80%) | < 5 nM | 100 to 500 nM | A (0% ≤ substrate protein remaining % ≤ 80%) | A (0% ≤ substrate protein remaining % ≤ 80%) | A (0% ≤ substrate protein remaining % ≤ 80%) | A (0% ≤ substrate protein remaining % ≤ 80%) | B (80%< substrate protein remaining %≤ 100%) | – | – | – | – | – | – |
| Cc1cscc1C1=CCN(Cc2ccc3c(c2)CN(C2CCC(=O)NC2=O)C3=S)CC1 (stereo not drawn) [GT-05145, 3-(5-((4-(4-methylthiophen-3-yl)-3,6-dihydropyridin-1(2H)-yl)methyl)-1-thioxoisoindolin-2-yl)piperidine-2,6-dione] | – | – | A (0% ≤ substrate protein remaining % ≤ 80%) | < 5 nM | < 100 nM | A (0% ≤ substrate protein remaining % ≤ 80%) | A (0% ≤ substrate protein remaining % ≤ 80%) | A (0% ≤ substrate protein remaining % ≤ 80%) | A (0% ≤ substrate protein remaining % ≤ 80%) | A (0% ≤ substrate protein remaining % ≤ 80%) | 10 to 50 nM | < 5 nM | 5 to 10 nM | < 5 nM | 10 to 50 nM | – |
| O=C1CCC(N2Cc3cc(CN4CC=C(c5cccc(Cl)c5Cl)CC4)ccc3C2=S)C(=O)N1 (stereo not drawn) [GT-05149, 3-(5-((4-(2,3-dichlorophenyl)-3,6-dihydropyridin-1(2H)-yl)methyl)-1-thioxoisoindolin-2-yl)piperidine-2,6-dione] | – | – | A (0% ≤ substrate protein remaining % ≤ 80%) | < 5 nM | 100 to 500 nM | B (80%< substrate protein remaining %≤ 100%) | A (0% ≤ substrate protein remaining % ≤ 80%) | A (0% ≤ substrate protein remaining % ≤ 80%) | A (0% ≤ substrate protein remaining % ≤ 80%) | A (0% ≤ substrate protein remaining % ≤ 80%) | 10 to 50 nM | 5 to 10 nM | 10 to 50 nM | 5 to 10 nM | 10 to 50 nM | – |
